The values below come from patent publication US12478694B2, “H2O2-responsive crosslinking near-infrared molecular probe for tumor microenvironment and use therefor” (SOOCHOW UNIVERSITY, priority 2019, dated 2025).

Data set [1] in a line: Ultraviolet absorption spectrum and fluorescence spectrum of the probe. The format is physicochemical. The note with it: probe diluted with methanol to 1 μM. The protocol: (§1) After diluting the H2O2 responsive NIR molecular probe prepared in Example 1 with methanol to a concentration of 1 μM, an ultraviolet-visible absorption spectrometer and a steady-state/transient fluorescence spectrometer were used to measure the ultraviolet absorption spectrum and fluorescence of the probe. Spectrum: The cytotoxicity of the probe to 4T1 was investigated by MTT (thiazole blue) colorimetry.

The test system of a further data set is 4T1. The experiment in a line: Cytotoxicity of the probe by MTT (thiazole blue) colorimetry. The format is cell-based, mouse. Particulars: 4T1 cells. The protocol:
as §1

Data set [2] relates to 4T1 cells. As to the kind of experiment: Co-localization of intracellular probe and intracellular mitochondria. The format is cell-based, mouse. Particulars: 5 μM probe, incubated 12 hours. The protocol:
Based on the method described in Example 2, 4T1 cells were seeded in a confocal small dish with 1.5×10^4 cells per well, placed in an incubator for 24 hours, and then the culture medium was discarded. The H2O2 responsive NIR molecular probe prepared in Example 1 was diluted with a culture medium to a concentration of 5 μM, and then added to a 4T1 cell culture dish, and placed in a cell incubator to incubate for 12 hours. After the probe and 4T1 cell incubation time was over, the cells were incubated with mitochondrial dye and Hoechst 33342 respectively, and the co-localization of the probe with mitochondria in 4T1 cells at the same time was observed using a confocal microscope.

For data set [3], the system named is 4T1 cells. As to the kind of experiment: Retention of the probe in 4T1 cells treated with hydrogen peroxide, confocal fluorescence. The format is cell-based, mouse. The procedure: The 4T1 cells were first treated with 100 μM hydrogen peroxide for 15 min, and then the H2O2 responsive NIR molecular probe DATC prepared in Example 1 was diluted into the cell culture medium, and then added to the 4T1 cell culture dish and incubated (The probe concentration is 5 μM). The sulfhydryl group on the protein in 4T1 cells treated with hydrogen oxide will be oxidized to sulfenic acid. When the probe entered into the tumor cell, the group 3,5-dioxocyclohexane carboxylic acid will interact with sulfenic acid cross-linking forms a CS covalent bond, so that the probe molecule is firmly connected to the macromolecular protein in the tumor cell, thereby prolonging the residence time of the molecular probe in the tumor cell, and improving the imaging effect of the probe molecule.
Based on the method described in Example 2, 4T1 cells were seeded in a confocal small dish, 1.5×10^4 cells per well, and placed in an incubator for 24 hours. After diluting hydrogen peroxide to 100 μM with cell culture medium, it was added to a culture dish of 4T1 cells and incubated for 15 minutes, and then the culture medium was discarded. The H2O2 responsive NIR molecular probe prepared in Example 1 was diluted with a culture medium to a concentration of 5 μM, and then added to the 4T1 cell culture dish, and placed in a cell incubator for 8 hours. After incubation of the probe and 4T1 cell, added new cell culture medium and continue culturing in the incubator for 4h, 8h, 12h and 24h. Then stained the nucleus with Hoechst33342 dye solution, and observed the fluorescence in 4T1 cells at different times after hydrogen peroxide treatment with a laser confocal microscope. The fluorescent probe (TC) without 3,5-dioxocyclohexane carboxylic acid was used as a control example, and a unified experimental method was adopted.

Data set [4] relates to 4T1 cells. As to the kind of experiment: Immunofluorescence of the probes in hydrogen peroxide treated 4T1 cells after re-culturing for 12 hours. The format is cell-based, mouse. The note with it: 100 μM H2O2 15 min, 5 μM probe 8 h, re-culture 12 hours. The procedure:
Based on the method described in Example 2, 4T1 cells were seeded in a confocal small dish, 1.5×10^4 cells per well, and placed in an incubator for 24 hours. After diluting hydrogen peroxide to 100 μM with cell culture medium, it was added to a culture dish of 4T1 cells and incubated for 15 minutes, and then the culture medium was discarded. The H2O2 responsive NIR molecular probe prepared in Example 1 was diluted with a culture medium to a concentration of 5 μM, and then added to a 4T1 cell culture dish, and placed in a cell incubator for 8 hours. After the incubation time of the probe and 4T1 cells is over, add new cell culture medium and continue culturing in the incubator for 12 hours. Subsequently, the cells were fixed with 4% paraformaldehyde at room temperature for 15 minutes, and then washed with PBS; secondly, 0.5% Trition-100 and 4T1 cells were incubated at room temperature for 5 minutes; the antibody anticysteine sulfenic acid was incubated at room temperature. After 1 hour, the antibody was washed with PBS, and then incubated at 37° C. for 30 minutes with goat anti-rabbit-Cy3. Finally, the nucleus was stained with Hoechst 33342 staining solution. […] The fluorescent probe (TC) without 3,5-dioxocyclohexane carboxylic acid was used as a control, and a unified experimental method was adopted.

Data set [5] relates to 4T1 mouse breast cancer tumor in BALB/c/nu female nude mice. The experiment in a line: NIR fluorescence imaging of the probe at the tumor site in mice. The format is in vivo. The note with it: intratumoral injection, 100 μM, 50 μL. The procedure: BALB/c/nu female nude mice inoculated with 4T1 mouse breast cancer cells were randomly divided into two groups with 5 mice in each group. After the tumor on the right forelimb of the mouse grows up, the probes DATC and TC are injected into the tumors of the two groups of nude mice by intratumoral injection, at a concentration of 100 μM (50 μL/each). Then put the probe-injected mice in the small animal IVIS Lumina XRMS live imaging system to observe the changes in the fluorescence intensity of the probe in the nude mouse tumor over time, and calculate the experimental group probe and the control group through the IVIS live imaging analysis software The fluorescence intensity of the probe at different time points at the tumor site in nude mice.

`C[N+]1=C(/C=C/C=C/C=C2/N(CCCCCC(=O)NCCCn3cc(CNC(=O)[C@H](CCCCNC(=O)C4CC(=O)CC(=O)C4)NC(=O)CCC[P+](c4ccccc4)(c4ccccc4)c4ccccc4)nn3)c3ccc(S(=O)(=O)O)cc3C2(C)C)C(C)(C)c2cc(S(=O)(=O)O)ccc21` [DATC] showed a max absorption peak in data set [1] (UV absorption spectrum) of 646 nm. Also, the maximum emission in data set [1] (fluorescence spectrum) amounted to 670 nm. For the same molecule, the “killing effect on the cells as the concentration increases” value in the data set on 4T1 is on record as “no killing effect on the cells”. In addition, the “co-localization of the probe with mitochondria” value in the data set on 4T1 cells [2] was “basically coincide”. The “red fluorescence intensity in 4T1 cells 8 hours after washing off the probe, versus control probe” value in the data set with 4T1 cells [3] (100 μM H2O2 15 min, 5 μM probe 8 h, re-culture 8 h) is on record as “significantly stronger”. Also, in the data set on 4T1 cells [3] (100 μM H2O2 15 min, 5 μM probe 8 h, re-culture 24 h), the “fluorescence signal in 4T1 cells 24h later” value is “strong fluorescence signal”. In the data set with 4T1 cells [3] (fluorescence quantitative data, H2O2-treated 4T1 cells, 5 μM probe), the “time the probe can stay in the cell” value was at least 24 h. Further, in the data set with 4T1 cells [4], the “content / fluorescent signal of probe in cells” value is “relatively high”. Also, the “duration of the fluorescent signal at the tumor site” value in data set [5] came to 36 h. Moreover, the “fluorescence signal of the probe at the tumor site at 2h” value in data set [5] (2h) is “only slightly decreased”. Further, the “fluorescence signal of the probe at the tumor site at 12h” value in data set [5] (12h) is reported as “obvious fluorescence signal”.
